Assay results: patent publication US20120052573A1, “ONE-POT SYNTHESIS OF LINEAR-LIKE POLYETHYLENIMINE FOR INTRACELLULAR IMAGING AND NUCLEIC ACID DELIVERY” (NATIONAL HEALTH RESEARCH INSTITUTES, priority 2010, published 2012)

System: H460 human lung cancer cells
Assay: Flow cytometry cell cycle arrest analysis after cyclin B1 siRNA delivery
Assay type: cell-based
Conditions: [siRNA]=200 nM, [compound b]=100 ng/mL, 24 h, no fetal bovine serum, n=3
Experimental: Flow cytometry for cell cycle analysis. Human lung cancer cells, H460, at 2×10^5 cells/mL were treated with cyclin B1siRNA alone (200 nM) or compound b/siRNA complex ([compound b]=100 ng/mL, [cyclin B1 siRNA]=200 nM) in RPMI 1640 medium for […] at 37° C., 5% CO2(g). After the treatments, cells were washed twice in PBS buffer solution and fixed in cold. PBS solution containing 75% ethanol. After washing with PBS and centrifugation at 1,500 rpm for 5 min, cells were stained with propidium iodide (PI) and analyzed by FACS Calibur (BD PharMingen, N.J., USA) using WinMDI 2.9 analysis software. The cyclic B1 siRNA sequence is 5′-[…]-3 (SEQ ID NO: 1) for sense and 5′-[…]-3 (SEQ ID NO: 2) (NCBI accession number of cyclin B1: NM031966) for anti-sense.
PEI has a high cationic density and can associate with nucleic acids such as siRNA to form a cationic polyplex. The efficiency of the PEI according to the invention as a delivery vehicle for siRNA was examined. Compound b (LPEI) was used to associate with a siRNA for silencing Cyclin B1, which is an indispensable protein for cell mitosis. […] The population proportions of cells were analyzed and summarized in histogram profile (FIG. 4E). […]
H460 lung cancer cells were treated with compound b/siRNA complex for 24 h, and the cell cycle distribution was examined by flow cytometry. […] FL2A: fluorescence pulse area. *p<0.05.

“siRNA alone: cyclin B1 siRNA, sense SEQ ID NO: 1, anti-sense SEQ ID NO: 2 (sense ACAUGAGAGCCAUCCUAAUUGTT; antisense CAAUUAGGAUGGCUCUCAUGUTT; chemistry not given here)” was tested, and the “population in G2/M phase of the cell cycle, increase compared with control” value was 5.52%±0.406.
